≈ marks a conversion by molar mass, not a printed value.
Tested on: measles virus
Experiment: microbe, parasite or virus in culture
Details: Measles morbillivirus; for MIC50: 24 h

CCOc1nn(-c2ccc(C3CC3)cn2)c(C)c1-c1ccccc1 [example 161A, 5-cyclopropyl-2-(3-ethoxy-5-methyl-4-phenyl-1H-pyrazol-1-yl)pyridine]
MIC50: 0.5 to 5 µM (≈ 0.16 to 1.6 µg/mL)

CCOc1ccc(-n2nc(OC(C)C)c(Oc3c(F)cccc3F)c2C)nn1 [example 174A, 3-(4-(2,6-difluorophenoxy)-3-isopropoxy-5-methyl-1H-pyrazol-1-yl)-6-ethoxypyridazine]
MIC50: 0.05 to 0.5 µM (≈ 0.0195 to 0.195 µg/mL)

CCOc1nn(-c2ccc(C3CC3)cn2)c(C)c1Oc1cccc(C(F)(F)F)c1 [example 93, 5-cyclopropyl-2-(3-ethoxy-5-methyl-4-(3-(trifluoromethyl)phenoxy)-1H-pyrazol-1-yl)pyridine]
MIC50: 0.05 to 0.5 µM (≈ 0.0202 to 0.202 µg/mL)

CCOc1nn(-c2ccccn2)c(C)c1-c1ccc(OC)cc1 [example 160, 2-(3-ethoxy-4-(4-methoxyphenyl)-5-methyl-1H-pyrazol-1-yl)pyridine]
MIC50: > 5 µM

CCOc1c(Cc2ccccc2)c(C)nn1-c1ncc(Br)cn1 [example 43, 2-(4-benzyl-5-ethoxy-3-methyl-1H-pyrazol-1-yl)-5-bromopyrimidine]
MIC50: > 5 µM

CC(=O)c1ccc(-n2nc(OC(C)C)c(Oc3c(F)cccc3F)c2C)nc1 [example 87, 1-(6-(4-(2,6-difluorophenoxy)-3-isopropoxy-5-methyl-1H-pyrazol-1-yl)pyridin-3-yl)ethanone]
MIC50: 0.05 to 0.5 µM (≈ 0.0194 to 0.194 µg/mL)

Cc1cnc(-n2nc(OC(C)C)c(Oc3c(F)cccc3F)c2C)nc1 [example 47, 2-(4-(2,6-difluorophenoxy)-3-isopropoxy-5-methyl-1H-pyrazol-1-yl)-5-methylpyrimidine]
MIC50: 0.0005 to 0.05 µM (≈ 0.00018 to 0.018 µg/mL)

Cc1c(Oc2c(F)cccc2F)c(OC(C)C)nn1-c1cnc(C2CC2)nc1 [example 133, 2-cyclopropyl-5-(4-(2,6-difluorophenoxy)-3-isopropoxy-5-methyl-1H-pyrazol-1-yl)pyrimidine]
MIC50: 0.05 to 0.5 µM (≈ 0.0193 to 0.193 µg/mL)

Cc1c(Oc2cc(F)ccc2F)c(OC(C)C)nn1-c1ccc(C2CC2)cn1 [example 18, 5-cyclopropyl-2-(4-(2,5-difluorophenoxy)-3-isopropoxy-5-methyl-1H-pyrazol-1-yl)pyridine]
MIC50: 0.0005 to 0.05 µM (≈ 0.000193 to 0.0193 µg/mL)

CCOc1nn(-c2ncc(CC)cn2)c(C)c1Sc1ccccc1 [example 152, 2-(3-ethoxy-5-methyl-4-(phenylthio)-1H-pyrazol-1-yl)-5-ethylpyrimidine]
MIC50: 0.05 to 0.5 µM (≈ 0.017 to 0.17 µg/mL)

CCc1cnc(-n2nc(OC(C)C)c(Oc3c(F)cccc3F)c2C)c(F)c1 [example 5A, 2-(4-(2,6-difluorophenoxy)-3-isopropoxy-5-methyl-1H-pyrazol-1-yl)-5-ethyl-3-fluoropyridine]
MIC50: 0.05 to 0.5 µM (≈ 0.0196 to 0.196 µg/mL)

Cc1c(Oc2c(F)cccc2F)c(OC(C)C)nn1-c1ncc(C2CC2)cc1C#N [example 46, 5-cyclopropyl-2-(4-(2,6-difluorophenoxy)-3-isopropoxy-5-methyl-1H-pyrazol-1-yl)nicotinonitrile]
MIC50: 0.0005 to 0.05 µM (≈ 0.000205 to 0.0205 µg/mL)

CCOc1nn(-c2ccc(Cl)cn2)c(C)c1Cc1ccccc1 [example 39, 2-(4-benzyl-3-ethoxy-5-methyl-1H-pyrazol-1-yl)-5-chloropyridine]
MIC50: 0.5 to 5 µM (≈ 0.164 to 1.64 µg/mL)

Cc1c(Oc2c(F)cccc2F)c(OC(C)C)nn1-c1ccccn1 [example 4, 2-(4-(2,6-difluorophenoxy)-3-isopropoxy-5-methyl-1H-pyrazol-1-yl)pyridine]
MIC50: > 5 µM

CCCc1cnc(-n2nc(OC(C)C)c(Oc3c(F)cccc3F)c2C)c(F)c1 [example 190A, 2-(4-(2,6-difluorophenoxy)-3-isopropoxy-5-methyl-1H-pyrazol-1-yl)-3-fluoro-5-propylpyridine]
MIC50: 0.05 to 0.5 µM (≈ 0.0203 to 0.203 µg/mL)

CCCc1cnc(-n2nc(OCC)c(Cc3ccccc3)c2C)nc1 [example 27, 2-(4-benzyl-3-ethoxy-5-methyl-1H-pyrazol-1-yl)-5-propylpyrimidine]
MIC50: 0.0005 to 0.05 µM (≈ 0.000168 to 0.0168 µg/mL)

Cc1c(-c2ccc(-c3ccccc3F)cc2)nc2ccc(F)cc2c1C(=O)O [brequinar, reference compound]
IC50 (HEK-293T, read-out: IC50 on the measles virus): 40 nM

CCOc1nn(-c2ncc(CC)cn2)c(C)c1Oc1cccc(C(F)(F)F)c1 [example 57, 2-(3-ethoxy-5-methyl-4-(3-(trifluoromethyl)phenoxy)-1H-pyrazol-1-yl)-5-ethylpyrimidine]
MIC50: 0.05 to 0.5 µM (≈ 0.0196 to 0.196 µg/mL)

c1ccc(Oc2cn(-c3ncc(C4CC4)cn3)nc2C2CC2)cc1 [example 119, 5-cyclopropyl-2-(3-cyclopropyl-4-phenoxy-1H-pyrazol-1-yl)pyrimidine]
MIC50: 0.0005 to 0.05 µM (≈ 0.000159 to 0.0159 µg/mL)

CCOc1nn(-c2ccccc2)c(C)c1Cc1ccccc1 [example 134, 4-benzyl-3-ethoxy-5-methyl-1-phenyl-1H-pyrazole]
MIC50: 0.5 to 5 µM (≈ 0.146 to 1.46 µg/mL)

CCc1cnc(-n2nc(OC(C)C)c(Cc3ccc(F)cc3)c2C)nc1 [example 24, 5-ethyl-2-(4-(4-fluorobenzyl)-3-isopropoxy-5-methyl-1H-pyrazol-1-yl)pyrimidine]
MIC50: 0.0005 to 0.05 µM (≈ 0.000177 to 0.0177 µg/mL)

CCc1cnc(-n2nc(OCCCN(C)C)c(Cc3ccccc3)c2C)nc1 [example 140, 3-(4-benzyl-1-(5-ethylpyrimidin-2-yl)-5-methyl-1H-pyrazol-3-yloxy)-N,N-dimethylpropan-1-amine]
MIC50: 0.5 to 5 µM (≈ 0.19 to 1.9 µg/mL)

Cc1c(Oc2c(F)cccc2F)c(OC(C)C)nn1-c1cnc(Br)cn1 [example 48, 2-bromo-5-(4-(2,6-difluorophenoxy)-3-isopropoxy-5-methyl-1H-pyrazol-1-yl)pyrazine]
MIC50: 0.5 to 5 µM (≈ 0.213 to 2.13 µg/mL)

CCOc1nn(-c2ccc(C(C)(C)O)cn2)c(C)c1Cc1ccccc1 [example 34, 2-(6-(4-benzyl-3-ethoxy-5-methyl-1H-pyrazol-1-yl)pyridin-3-yl)propan-2-ol]
MIC50: > 5 µM

Cc1c(Oc2c(F)cccc2F)c(OC(C)C)nn1-c1ncccn1 [example 74, 2-(4-(2,6-difluorophenoxy)-3-isopropoxy-5-methyl-1H-pyrazol-1-yl)pyrimidine]
MIC50: 0.5 to 5 µM (≈ 0.173 to 1.73 µg/mL)

CC(C)Oc1nn(-c2ncc(C3CC3)cc2F)cc1Oc1ccccc1F [example 66, 5-cyclopropyl-3-fluoro-2-(4-(2-fluorophenoxy)-3-isopropoxy-1H-pyrazol-1-yl)pyridine]
MIC50: 0.0005 to 0.05 µM (≈ 0.000186 to 0.0186 µg/mL)

CCOc1nn(-c2ccccn2)c(C)c1-c1ccc(C(F)(F)F)cc1 [example 159, 2-(3-ethoxy-5-methyl-4-(4-(trifluoromethyl)phenyl)-1H-pyrazol-1-yl)pyridine]
MIC50: > 5 µM

CCOc1nn(-c2ccc(C3CC3)cn2)c(C)c1C(=O)c1ccccc1 [example 151, (1-(5-cyclopropylpyridin-2-yl)-3-ethoxy-5-methyl-1H-pyrazol-4-yl)(phenyl)methanone]
MIC50: 0.05 to 0.5 µM (≈ 0.0174 to 0.174 µg/mL)

Cc1ccc(-n2nc(OC(C)C)c(Oc3c(F)cccc3F)c2C)nc1 [example 9A, 2-(4-(2,6-difluorophenoxy)-3-isopropoxy-5-methyl-1H-pyrazol-1-yl)-5-methylpyridine]
MIC50: 0.0005 to 0.05 µM (≈ 0.00018 to 0.018 µg/mL)

COCc1c(Cc2ccccc2)c(OC(C)C)nn1-c1ncc(C2CC2)cn1 [example 168, 2-(4-benzyl-3-isopropoxy-5-(methoxymethyl)-1H-pyrazol-1-yl)-5-cyclopropylpyrimidine]
MIC50: 0.05 to 0.5 µM (≈ 0.0189 to 0.189 µg/mL)

COc1cc(C2CC2)cnc1-n1cc(Oc2ccccc2F)c(OC(C)C)n1 [example 185, 5-cyclopropyl-2-(4-(2-fluorophenoxy)-3-isopropoxy-1H-pyrazol-1-yl)-3-methoxypyridine]
MIC50: 0.05 to 0.5 µM (≈ 0.0192 to 0.192 µg/mL)

Cc1c(Oc2cccc(F)c2)c(OC(C)C)nn1-c1ccc(C2CC2)cn1 [example 97, 5-cyclopropyl-2-(4-(3-fluorophenoxy)-3-isopropoxy-5-methyl-1H-pyrazol-1-yl)pyridine]
MIC50: 0.05 to 0.5 µM (≈ 0.0184 to 0.184 µg/mL)

Cc1c(Oc2c(F)cccc2F)c(OC(C)C)nn1-c1ccc(Br)cn1 [example 59, 5-bromo-2-(4-(2,6-difluorophenoxy)-3-isopropoxy-5-methyl-1H-pyrazol-1-yl)pyridine]
MIC50: 0.05 to 0.5 µM (≈ 0.0212 to 0.212 µg/mL)

CC(C)Oc1nn(-c2ccc(C3CC3)cn2)cc1[S+]([O-])c1ccccc1 (centres unmarked) [example 181, 5-cyclopropyl-2-(3-isopropoxy-4-(phenylsulfinyl)-1H-pyrazol-1-yl)pyridine]
MIC50: 0.5 to 5 µM (≈ 0.184 to 1.84 µg/mL)

Cc1c(Oc2ccc(F)cc2F)c(OC(C)C)nn1-c1ccc(C2CC2)cn1 [example 17, 5-cyclopropyl-2-(4-(2,4-difluorophenoxy)-3-isopropoxy-5-methyl-1H-pyrazol-1-yl)pyridine]
MIC50: 0.05 to 0.5 µM (≈ 0.0193 to 0.193 µg/mL)

CCOc1nn(-c2ccc(C3CC3)cn2)c(C)c1Oc1cc(Cl)ccc1Cl [example 95, 5-cyclopropyl-2-(4-(2,5-dichlorophenoxy)-3-ethoxy-5-methyl-1H-pyrazol-1-yl)pyridine]
MIC50: 0.05 to 0.5 µM (≈ 0.0202 to 0.202 µg/mL)

CCc1nnc(-n2nc(OC(C)C)c(Oc3c(F)cccc3F)c2C)nc1O [example 118, 3-(4-(2,6-difluorophenoxy)-3-isopropoxy-5-methyl-1H-pyrazol-1-yl)-6-ethyl-1,2,4-triazin-5-ol]
MIC50: 0.0005 to 0.05 µM (≈ 0.000196 to 0.0196 µg/mL)

CCOc1nn(-c2ccc(C(F)(F)F)cn2)c(C)c1Cc1ccccc1 [example 38, 2-(4-benzyl-3-ethoxy-5-methyl-1H-pyrazol-1-yl)-5-(trifluoromethyl)pyridine]
MIC50: 0.5 to 5 µM (≈ 0.181 to 1.81 µg/mL)

CCOc1nn(-c2ncc(C3CC3)cn2)c(C)c1Cc1ccccc1 [example 29, 2-(4-benzyl-3-ethoxy-5-methyl-1H-pyrazol-1-yl)-5-cyclopropylpyrimidine]
MIC50: 0.0005 to 0.05 µM (≈ 0.000167 to 0.0167 µg/mL)

COc1cnc(-n2nc(OC(C)C)c(Oc3c(F)cccc3F)c2C)cn1 [example 173, 2-(4-(2,6-difluorophenoxy)-3-isopropoxy-5-methyl-1H-pyrazol-1-yl)-5-methoxypyrazine]
MIC50: 0.5 to 5 µM (≈ 0.188 to 1.88 µg/mL)

CCOc1nn(-c2ncc(Br)cc2F)c(C)c1Cc1ccccc1 [example 40, 2-(4-benzyl-3-ethoxy-5-methyl-1H-pyrazol-1-yl)-5-bromo-3-fluoropyridine]
MIC50: 0.5 to 5 µM (≈ 0.195 to 1.95 µg/mL)

CCc1cnc(-n2nc(OC(C)C)c(Cc3ccc(OC)cc3)c2C)nc1 [example 111, 5-ethyl-2-(3-isopropoxy-4-(4-methoxybenzyl)-5-methyl-1H-pyrazol-1-yl)pyrimidine]
MIC50: 0.05 to 0.5 µM (≈ 0.0183 to 0.183 µg/mL)

Cc1c(Oc2c(F)cccc2F)c(OC(C)C)nn1-c1ncc(C2CC2)cc1O [example 187, 5-cyclopropyl-2-(4-(2,6-difluorophenoxy)-3-isopropoxy-5-methyl-1H-pyrazol-1-yl)pyridin-3-ol]
MIC50: 0.0005 to 0.05 µM (≈ 0.000201 to 0.0201 µg/mL)

CCOc1nn(-c2ncc(CC)cn2)c(C)c1C(=O)c1ccccc1 [example 150, (3-ethoxy-1-(5-ethylpyrimidin-2-yl)-5-methyl-1H-pyrazol-4-yl)(phenyl)methanone]
MIC50: 0.5 to 5 µM (≈ 0.168 to 1.68 µg/mL)

Reference: patent EP2929883A1, “Pyrazole derivatives as dihydroorotate dehydrogenase (DHODH) inhibitors” (INSTITUT PASTEUR, priority 2014, dated 2015)
